Data published in patent publication US11643691B2, “Predictive biomarkers for cancer immunotherapy and methods of using same” (Duke University, priority 2018, dated 2023).
One block for each compound: values may come before it.

How the values were obtained:
[1] = test system: CD8+ T cell proliferation; assay: T cell proliferation assay (CellTrace Violet dilution, OT-1 splenocytes with conditioned DCs); assay type: cell-based, mice; conditions: DCs pre-treated, LPS stimulated
Experimental: T Cell Proliferation Assay: Splenocytes of OT-1 mice (H-2b) were isolated and stained with CellTrace Violet (ThermoFisher). Preconditioned DCs were loaded with ovalbumin peptide SIINFEKL, and co-cultured at a DC:splenocyte ratio of 40,000:120,000 cells for 72 hrs. CD8+ T cell proliferation was measured by the dilution of Cell Trace Violet dye by flow cytometry.

CD4+FoxP3+ Treg cells = assay: In vitro Treg cell assay (conditioned DCs with naive CD4+ T cells); assay type: cell-based, mice; conditions: for DC-mediated Treg cell differentiation in vitro: treated DCs co-cultured with naive CD4+ T cells
Experimental: (§1) Dendritic Cell Conditioning: DCs were treated with Wnt3a (100 ng/mL), Wnt5a (200 ng/mL), LPS (1 μg/mL), 1-MT (1 mM), 2DG (1 mM), or ETO (100 μM), 2-DG(2-deoxy-d-glucose, 1 mM), Oligomycin (1 μM), succinylacetone (250 μM), or vehicle control either for 24 or 48 hrs prior to their use in both in vitro and in vivo experiments.
Treg Cell Assays: For in vivo Treg cell assays, DCs (C57, H-2b) were pre-treated for 48 hours and delivered by intradermal injection into the footpad of Foxp3-mRFP mice. Draining inguinal and popliteal lymph nodes were resected 5 days later and analyzed for CD4+Foxp3+ Treg cells. For in vitro Treg cell assays, DCs (Balb/c, H-2d) were pre-treated for either 24 or 48 hrs, and re-plated at a 1:3 DC:T-cell ratio with purified allogeneic naive Foxp3-mRFP(H-2b) CD44loCD62LhiCD4+ Tcells. These co-cultures were incubated for 6 days and quantitated for CD4+FoxP3+ Treg cells by flow cytometry.

DCs [2] = assay: Extracellular acidification rate (ECAR), Seahorse XFe24 flux analysis of DCs; assay type: cell-based, Murine
Experimental: as §1
(§2) Cellular Energy Metabolism Analysis: DC energy metabolism was measured using the XFe24 extracellular flux analyzer (Seahorse Bioscience), with the glycolysis stress test kit and the mitochondrial stress test kit as previously described (Everts et al., 2014, Zhao and Klimecki, 2015). For experiments involving LPS injection, DCs were plated in XFe24 plates (200,000/well in 500p1) and treated with LPS for 48 hours prior to XF analysis. DCs were washed and analyzed in XF media (RPMI without sodium bicarbonate, 10 mM glucose, 1% FBS, 2 mM L-glutamine). ECAR was analyzed in real-time with or without LPS stimulation. For experiments involving BrafV600EPten−/− cell line-derived conditioned media (CM), collected CM was concentrated and desalted with an Amicon Ultra 30K filter according to manufacturer's recommendations (Milipore). Final concentrate was further washed with XF media 3 times, added to DCs immediately prior to OCR analysis. For standard ECAR analysis, XF media (without glucose) was used to wash cells prior to the assay. A final concentration of 10 mM glucose, 1 μM oligomycin, 50 mM 2-DG(sigma) were injected through XFe24 port A-C. For standard OCR analysis, XF media (with 10 mM glucose) was used to wash cells, a final concentration of 1 μM oligomycin, 1.5 μM FCCP (fluoro-carbonyl cyanide phenylhydrazone), 100 nM rotenone, and 1 μM of antimycin-A (Sigma) were injected through XFe24 port A-C.

DCs [3] = assay: Oxygen consumption rate (OCR) / OXPHOS, Seahorse XFe24 flux analysis of murine DCs; assay type: cell-based; conditions: DCs pre-treated
Experimental: as §1
as §2, with “A final concentration of 10 mM glucose, 1 μM oligomycin, 50 mM 2-DG(sigma) were injected through XFe24 port A-C. For standard OCR analysis, XF media (with 10 mM glucose) was used to wash cells, a final concentration of 1 μM oligomycin, 1.5 μM FCCP (fluoro-carbonyl cyanide phenylhydrazone), 100 nM rotenone, and 1 μM of antimycin-A (Sigma) were injected through XFe24 port A-C.” left out

DCs [4] = assay: qRT-PCR / qPCR array / immunoblot gene expression in DCs; assay type: cell-based, Murine
Experimental: Dendritic Cell Conditioning: DCs were treated with Wnt3a (100 ng/mL), Wnt5a (200 ng/mL), LPS (1 μg/mL), 1-MT (1 mM), 2DG (1 mM), or ETO (100 μM), 2-DG(2-deoxy-d-glucose, 1 mM), Oligomycin (1 μM), succinylacetone (250 μM), […]
Antibodies, Immunoprecipitation, and Immunoblot Analysis: Primary antibodies including CPT1A (Cell signaling), PPAR-γ (Santa Cruz Biotechnology), β-catenin, β-actin (Millipore), p-AMPK(T172)/AMPK (Cell signaling), p-AKT(T308)/Akt (Cell Signaling) were used at 1:1000. Secondary antibodies including goat anti-rabbit IgG-HRP (Millipore) and goat anti-mouse IgG-HRP (Millipore) were used at 1:5000. Cells were lysed in Laemmli sample buffer after treatment and subjected to SDS-polyacrylamide gel electrophoresis and immunoblot analysis. For immunoprecipitation, cells were lysed in radio immunoprecipitation assay (RIPA) buffer [10 mM sodium phosphate (pH 8.0), 150 mM NaCl, 1% Triton X-100, 1% sodium deoxycholate, and 0.1% SDS in the presence of 1 mM DTT, 1 mM phenylmethylsulfonylfluoride, and a protease inhibitor cocktail (Sigma)], precleared with protein A beads, and then incubated with 1 μg of antibody against β-catenin or isotype control IgG with protein A-agarose beads on a rotator overnight at 4° C. After 3 washes with RIPA buffer, immunoprecipitated complexes were eluted in sample buffer by boiling and subjected to immunoblot analysis. Immunoblots were visualized by chemiluminescence substrate (ThermoFisher) and imaged by a ChemiDoc XRSplus system (BioRad).
RNA Isolation, RT-qPCR, qPCR Array: Total RNA was isolated by RNeasy Plus Mini Kit(Qiagen). RNA(500 ng) were used in cDNA Synthesis (iScript, BioRad). Quantification of mRNA for genes involved in PPARγ signaling was performed using Mouse PrimePCR PPAR Array according to the manufacturer's protocol (BioRad). Real-time PCR was performed using an ABI7500 Real-Time PCR system (Life Technologies). Data analysis utilized the PrimePCR Analysis Software (BioRad). Conventional qPCR was performed using validated primers, and SsoAdvanced Universal SYBR Green Super mix (BioRad) or Taqman probes (Applied Biosystems) for heme synthesis enzymes.

DCs [5] = assay: PpIX flow cytometry analysis and hemin colorimetric assay; assay type: cell-based, Murine
Experimental: IDO enzymatic assay and Hemin assay: DC IDO enzyme activity was measured by the conversion of L-tryptophan to L-kynurenine in conditioned media by HPLC (Pallotta et al., 2011). Intracellular hemin was measured using a colorimetric assay kit (BioVision).
PpIX Analysis: DCs were terminally incubated in the presence of 1 mM δ-aminolevulinic acid (ALA) for 4 hrs. Intracellular PpIX was analyzed by flow cytometry as previously described (Hryhorenko et al., 1998).

[6] = test system: syngeneic BRAF^V600EPTEN^−/− melanomas; assay: Syngeneic melanoma study with NLRP3i and anti-PD-1 ab; assay type: in vivo
Experimental: (A) Treatment of syngeneic BRAF^V600EPTEN^−/− melanomas with IgG isotype control ab (200 μg ip every 3 days), NLRP3i (MCC950 10 μg ip every 3 days), anti-PD-1 ab (200 μg ip every 3 days), or both NLRP3i and anti-PD-1 ab combination therapy (n=8). (B) Gr-MDSC flow cytometry analysis of resected BRAF^V600EPTEN^−/− melanomas following treatment with IgG isotype control ab, NLRP3i, anti-PD-1 ab, or both NLRP3i and anti-PD-1 ab combination therapy (n=4). top, representative flow cytometry dot plot. (C) CD8^+ T cell flow cytometry analysis of resected BRAF^V600EPTEN^−/− melanomas following treatment with IgG isotype control ab, NLRP3i, anti-PD-1 ab, or both NLRP3i and anti-PD-1 ab combination therapy (n=4). All data is mean±SEM. *P<0.05.
As depicted in FIG. 21A, NLRP3 inhibition can be combined with a […] (e.g. PD-1 inhibitor) to augment the anti-tumor effect of the PD-1 inhibitor therapy.

Compound: O=CC[C@@H](O)[C@H](O)[C@H](O)CO [2-DG, 2-Deoxy-D-glucose, reference compound]
LPS-induced DC-mediated antigen-specific T cell proliferation [1]: suppresses LPS-induced DC-mediated antigen-specific T cell proliferation | DC-mediated Treg cell differentiation in vitro (CD4+FoxP3+ Treg cells): enhanced Treg cell differentiation in vitro

Compound: CC(=O)CC(=O)CCC(=O)O [succinylacetone, 4,6-Dioxoheptanoic acid]
ability of Wnt5a-conditioned DCs to drive Treg cell differentiation in vitro (CD4+FoxP3+ Treg cells; Wnt5a plus inhibitor): significantly abrogated the ability of Wnt5a-stimulated DCs to promote Treg cell generation

expression of Alas1 and further enzymes of PpIX synthesis (DCs [4]; qRT-PCR): not
Compound: Wnt3a
glycolysis in DCs (ECAR) (DCs [2]): no changes | OXPHOS in DCs (OCR) (DCs [3]): no changes | PPAR-γ (Pparg) and CPT1A (Cpt1a) expression (DCs [4]; real-time qPCR and immunoblot, murine and human DCs for rWnt5a): failed to induce expression of both PPAR-γ and CPT1A in DCs | DC-mediated Treg cell differentiation in vitro (CD4+FoxP3+ Treg cells): failed to condition DCs to promote Treg cell differentiation | DC concentrations of PpIX and hemin (DCs [5]): failed to enhance PpIX synthesis in DCs

Compound: Oc1nc(-c2ccc(C(F)(F)F)cc2)nc2c1CSCC2 [XAV939, reference compound]
glycolysis in DCs (ECAR) (DCs [2]): promoted glycolysis in DCs

Compound: CC(C)(O)c1coc(S(=O)(=O)NC(=O)Nc2c3c(cc4c2CCC4)CCC3)c1 [MCC950]
efficacy of anti-PD-1 ab immunotherapy ([6]; NLRP3i added to anti-PD-1 ab): Enhances the Efficacy of Anti-PD-1 Ab Immunotherapy | Gr-MDSC recruitment (Ly6G+ Gr-MDSCs) ([6]; flow cytometry of resected melanomas): Suppresses Gr-MDSC Recruitment

Compound: NC(=O)c1ncn([C@@H]2O[C@H](CO)[C@@H](O)[C@H]2O)c1N [AICAR, reference compound]
LPS-induced glycolytic surge (ECAR) (DCs [2]; DCs pre-treated): antagonize the glycolytic surge required for DC maturation

Compound: CC[C@H]1/C=C/C=C/C[C@@H](C)[C@H](O)[C@@](C)(O)C(=O)[C@@H](C)[C@H](O)[C@@H](C)C(=O)[C@@H](C)[C@H](O)[C@@H](C)/C=C/C(=O)O[C@@H]2[C@H](C)[C@H](CC1)O[C@]1(CC[C@H](C)[C@H](C[C@@H](C)O)O1)[C@H]2C [oligomycin, Oligomycin]
DC-mediated Treg cell differentiation in vitro (CD4+FoxP3+ Treg cells): eliminated these Treg cell populations
